According to patent US9938222B2 (BRISTOL-MYERS SQUIBB COMPANY, priority 2014, dated 2018):

Molecular target: human GPR120 (Homo sapiens (Human), UniProt Q5NUL3)
Assay: GPR120 pERK AlphaScreen SureFire Assay (human GPR120 pERK assay)
Type: cell-based
Settings: CHO cells stably transfected with short form of human GPR120
In short: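 CHOA12 cells stably expressing short-form human GPR120, serum-starved 2 h, then stimulated 7 min at 37° C with compound (33.33 μM to 0.56 nM, 11-point). Phospho-ERK1/2 read by AlphaScreen SureFire in lysates. Activation scaled between DMSO and 50 μM linolenic acid; EC50 from a 4-parameter logistic fit.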

human GPR120, sequence (Q5NUL3 whole entry): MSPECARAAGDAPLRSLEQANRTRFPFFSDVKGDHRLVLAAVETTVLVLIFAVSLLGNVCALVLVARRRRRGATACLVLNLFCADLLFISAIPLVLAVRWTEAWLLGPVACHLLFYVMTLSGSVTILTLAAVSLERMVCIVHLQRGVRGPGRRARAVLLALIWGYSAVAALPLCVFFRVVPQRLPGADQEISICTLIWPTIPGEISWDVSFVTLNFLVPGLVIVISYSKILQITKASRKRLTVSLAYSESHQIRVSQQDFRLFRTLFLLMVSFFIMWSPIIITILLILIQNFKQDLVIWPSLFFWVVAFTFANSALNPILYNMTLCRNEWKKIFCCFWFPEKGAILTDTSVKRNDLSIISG

Row | SMILES | EC50 [nM] | EC50 (μM)
1 | O=C(O)[C@@H]1C[C@H]1COc1ccc(-c2cc(C(F)(F)F)cnc2Cl)cc1 (racemic) [Example 122, Trans-2-((4-(2-chloro-5-(trifluoromethyl)pyridin-3-yl)phenoxy)methyl)cyclopropanecarboxylic acid] | 1350 | –
2 | CC(C)Oc1cc(F)cc(-c2ccc(OC[C@@H]3C[C@H]3C(=O)O)cc2)c1 (racemic) [Example 55, Trans-2-(((3′-fluoro-5′-isopropoxy-[1,1′-biphenyl]-4-yl)oxy)methyl) cyclopropanecarboxylic acid] | 1060 | –
3 | O=C(O)[C@@H]1C[C@H]1COc1ccc(-c2cc(OCC3CC3)ccc2F)cc1 (racemic) [Example 95, Trans-2-(((5′-(cyclopropylmethoxy)-2′-fluoro-[1,1′-biphenyl]-4-yl)oxy)methyl)cyclopropanecarboxylic acid] | 370 | –
4 | CC(C)Oc1ccc(F)c(-c2ccc(OC[C@@H]3C[C@H]3C(=O)O)cc2)c1F (relative stereo) [Example 127, Trans-2-(((2′,6′-difluoro-3′-isopropoxy-[1,1′-biphenyl]-4-yl)oxy)methyl) cyclopropanecarboxylic acid] | 940 | –
5 | C=C(C)COc1cc(F)cc(-c2ccc(OC[C@@H]3C[C@H]3C(=O)O)cc2)c1 (racemic) [Example 19, Trans-2-(((3′-fluoro-5′-((2-methylallyl)oxy)-[1,1′-biphenyl]-4-yl)oxy)methyl) cyclopropanecarboxylic acid] | – | Not active
6 | O=C(O)[C@H]1C[C@H]1COc1ccc(-c2cc(Oc3ccccc3)ccc2F)cc1 (single isomer, unassigned) [Example 6] | 410 | –
7 | Cc1nn(Cc2ccccc2)cc1-c1ccc(OC[C@@H]2C[C@H]2C(=O)O)cc1 (racemic) [Example 84, Trans-2-((4-(1-benzyl-3-methyl-1H-pyrazol-4-yl)phenoxy)methyl) cyclopropanecarboxylic acid] | 4310 | –
8 | Cc1ccc(Oc2ccc(F)c(-c3ccc(OCC4C[C@@H]4C(=O)O)cc3)c2)cn1 (stereo partly shown) [Example 116] | 90 | –
9 | CC(C)Oc1cc(F)cc(-c2ccc(OC[C@@H]3C[C@H]3C(=O)O)cc2F)c1 (racemic) [Example 60, Trans-2-(((2,3′-difluoro-5′-isopropoxy-[1,1′-biphenyl]-4-yl)oxy)methyl) cyclopropanecarboxylic acid] | 570 | –
10 | CCSc1cccc(-c2ccc(CC[C@@H]3C[C@H]3C(=O)O)cc2)c1 (racemic) [Example 38, Trans-2-(2-(3′-(ethylthio)-[1,1′-biphenyl]-4-yl)ethyl)cyclopropanecarboxylic acid] | 3240 | –
11 | Cc1ccc(Oc2cc(F)c(F)c(-c3ccc(OCC4CC4C(=O)O)c(F)c3)c2)cc1F (racemic) [Example 107] | 310 | –
12 | O=C(O)[C@@H]1C[C@H]1COc1ccc(-c2cc(OC3CCC3)ccc2F)cc1 (racemic) [Example 94, Trans-2-(((5′-cyclobutoxy-2′-fluoro-[1,1′-biphenyl]-4-yl)oxy)methyl) cyclopropanecarboxylic acid] | 140 | –
13 | Cc1nn(Cc2ccc(Cl)cc2)cc1-c1ccc(OC[C@@H]2C[C@H]2C(=O)O)cc1 (racemic) [Example 85, Trans-2-((4-(1-(4-chlorobenzyl)-3-methyl-1H-pyrazol-4-yl)phenoxy)methyl) cyclopropanecarboxylic acid] | 3810 | –
14 | CC(C)Oc1cc(F)c(F)c(-c2ccc(OC[C@@H]3C[C@H]3C(=O)O)cc2F)c1 (racemic) [Example 61, Trans-2-(((2,2′,3′-trifluoro-5′-isopropoxy-[1,1′-biphenyl]-4-yl)oxy)methyl)cyclopropanecarboxylic acid] | 2780 | –
15 | O=C(O)[C@@H]1C[C@H]1COc1ccc(-c2cc(C(F)(F)F)ccc2F)cc1 (racemic) [Example 123, Trans-2-(((2′-fluoro-5′-(trifluoromethyl)-[1,1′-biphenyl]-4-yl)oxy)methyl)cyclopropanecarboxylic acid] | 680 | –
16 | O=C(O)[C@H]1CC1COc1ccc(-c2cc(Oc3cccc(F)c3)cnc2Cl)cc1 (stereo partly shown) [Example 113] | 120 | –
17 | O=C(O)[C@@H]1C[C@H]1CCc1ccc(-c2cccc(-n3cccc3)c2)cc1 (racemic) [Example 129, Trans-2-(2-(3′-(1H-pyrrol-1-yl)-[1,1′-biphenyl]-4-yl)ethyl) cyclopropanecarboxylic acid] | 1580 | –
18 | Cc1ccc(Oc2cc(F)c(F)c(-c3ccc(OCC4CC4C(=O)O)c(F)c3)c2)cc1F (single isomer, unassigned) [Example 109] | 260 | –
19 | Cc1ccc(Oc2ccc(F)c(-c3ccc(OCC4CC4C(=O)O)c(F)c3)c2)cc1F (single isomer, unassigned) [Example 102, Trans-2-(((2′,3-difluoro-5′-(3-fluoro-4-methylphenoxy)-[1,1′-biphenyl]-4-yl)oxy)methyl)cyclopropanecarboxylic acid] | 270 | –

Row | SMILES | EC50 [nM] | EC50 (μM)
20 | CC(C)Oc1cc(Cl)cc(-c2ccc(CC[C@@H]3C[C@H]3C(=O)O)cc2)c1 (relative stereo) [Example 132, Trans-2-(2-(3′-chloro-5′-isopropoxy-[1,1′-biphenyl]-4-yl)ethyl) cyclopropanecarboxylic acid] | 2440 | –
21 | CC(C)Oc1ccc(F)c(-c2ccc(COC[C@@H]3C[C@H]3C(=O)O)cc2)c1 (racemic) [Example 24, Trans-2-(((2′-fluoro-5′-isopropoxy-[1,1′-biphenyl]-4-yl)methoxy)methyl) cyclopropanecarboxylic acid] | 440 | –
22 | CC(C)Oc1cccc(-c2ccc(OC[C@@H]3C[C@H]3C(=O)O)cc2)c1 (racemic) [Example 73, Trans-2-(((3′-isopropoxy-[1,1′-biphenyl]-4-yl)oxy)methyl) cyclopropanecarboxylic acid] | 1380 | –
23 | CCOc1ccc(F)c(-c2ccc(OC[C@@H]3C[C@H]3C(=O)O)cc2)c1 (racemic) [Example 68, Trans-2-(((5′-ethoxy-2′-fluoro-[1,1′-biphenyl]-4-yl)oxy)methyl) cyclopropanecarboxylic acid] | 660 | –
24 | CC1(C)Cc2c(cc(F)cc2-c2ccc(OC[C@@H]3C[C@H]3C(=O)O)cc2)O1 (racemic) [Example 20, Trans-2-((4-(6-fluoro-2,2-dimethyl-2,3-dihydrobenzofuran-4-yl)phenoxy)methyl) cyclopropanecarboxylic acid] | 990 | –
25 | O=C(O)[C@@H]1C[C@H]1CCc1ccc(-c2cc(Oc3ccccc3)ccc2F)cc1 (racemic) [Example 76, Trans-2-(2-(2′-fluoro-5′-phenoxy-[1,1′-biphenyl]-4-yl)ethyl) cyclopropanecarboxylic acid] | 470 | –
26 | O=C(O)[C@@H]1C[C@H]1COc1ccc(-c2cc(C(F)(F)F)ccc2Cl)cc1 (racemic) [Example 121, Trans-2-(((2′-chloro-5′-(trifluoromethyl)-[1,1′-biphenyl]-4-yl)oxy)methyl)cyclopropanecarboxylic acid] | 1250 | –
27 | CC(C)Oc1ccc(F)c(-c2ccc(CC[C@@H]3C[C@H]3C(=O)O)cc2)c1 (racemic) [Example 30, Trans-2-(2-(2′-fluoro-5′-isopropoxy-[1,1′-biphenyl]-4-yl)ethyl)cyclopropanecarboxylic acid] | 320 | –
28 | O=C(O)[C@@H]1C[C@H]1COCc1ccc(-c2cc(Oc3ccccc3)ccc2F)cc1 (racemic) [Example 25, Trans-2-(((2′-fluoro-5′-phenoxy-[1,1′-biphenyl]-4-yl)methoxy)methyl) cyclopropanecarboxylic acid] | 980 | –
29 | CC(C)Oc1cc(-c2ccc(OC[C@@H]3C[C@H]3C(=O)O)cc2)cc(C(F)(F)F)c1 (racemic) [Example 47, Trans-2-(((3′-isopropoxy-5′-(trifluoromethyl)-[1,1′-biphenyl]-4-yl)oxy)methyl)cyclopropanecarboxylic acid] | 2040 | –
30 | Cc1cc(-c2cc(OC(C)C)ccc2F)ccc1OC[C@@H]1C[C@H]1C(=O)O (racemic) [Example 46, Trans-2-(((2′-fluoro-5′-isopropoxy-3-methyl-[1,1′-biphenyl]-4-yl)oxy)methyl)cyclopropanecarboxylic acid] | 310 | –
31 | CC(C)Oc1ccc(F)c(-c2ccc(CC[C@H]3C[C@H]3C(=O)O)cc2)c1 (racemic) [Example 15, (Cis)-(+/−)-2-(2-(2′-fluoro-5′-isopropoxy-[1,1′-biphenyl]-4-yl)ethyl) cyclopropanecarboxylic acid] | 1690 | –
32 | CC(C)Oc1ccc(Cl)c(-c2ccc(OC[C@@H]3C[C@H]3C(=O)O)cc2)c1 (racemic) [Example 119, Trans-2-(((2′-chloro-5′-isopropoxy-[1,1′-biphenyl]-4-yl)oxy)methyl) cyclopropanecarboxylic acid] | 510 | –
33 | O=C(O)[C@@H]1C[C@H]1COc1ccc(-c2cc(Oc3cccc(F)c3)cnc2Cl)cc1 (racemic) [Example 111, Trans-2-((4-(2-chloro-5-(3-fluorophenoxy)pyridin-3-yl)phenoxy)methyl) cyclopropanecarboxylic acid] | 190 | –
34 | CC(C)Oc1ccc(F)c(-c2ccc(OC[C@@H]3C[C@H]3C(=O)O)c(Cl)c2)c1 (racemic) [Example 45, Trans-2-(((3-chloro-2′-fluoro-5′-isopropoxy-[1,1′-biphenyl]-4-yl)oxy)methyl)cyclopropanecarboxylic acid] | 220 | –
35 | CC(C)Oc1ccc(F)c(-c2ccc(OC[C@H]3C[C@@H]3C(=O)O)c(F)c2)c1 (single isomer, unassigned) [Example 64] | 290 | –
36 | CC(C)Oc1ccc(Cl)c(-c2ccc(CC[C@@H]3C[C@H]3C(=O)O)cc2)c1 (relative stereo) [Example 133, Trans-2-(2-(2′-chloro-5′-isopropoxy-[1,1′-biphenyl]-4-yl)ethyl) cyclopropanecarboxylic acid] | 1860 | –
37 | CC(C)Oc1ccc(F)c(-c2ccc(OC[C@@H]3C[C@H]3C(=O)O)c(F)c2)c1 (racemic) [Example 62, Trans-2-(((2′,3-difluoro-5′-isopropoxy-[1,1′-biphenyl]-4-yl)oxy)methyl) cyclopropanecarboxylic acid] | 310 | –
